Experimental data from publication PMC4371799 (Clinical Epigenetics, 2015).
Where “and” joins values, the source holds several entries; their conditions need not be identical. Equal values may be shown once. Read-outs that look alike come from different tables or passages of the source. One block for each compound: values may come before it.

Key:
[1] = Azacitidine plasma pharmacokinetics, non-compartmental analysis; format: in vivo, patients; details: for AUC / Cmax / half-life / AUC(0-inf): human, plasma, intravenous
Text: Compartmental and non-compartmental modeling were used to derive pharmacokinetic parameters, including Cmax (maximum concentration), AUC (area under the curve), t1/2 (half-life of elimination), Vd (volume of distribution), and CL (clearance).

[2] = test system: platinum-resistant ovarian cancer cells; details: cited from earlier work
[3] = test system: CTR1; parameters: method as in PMID 19470736; details: phase I clinical trial, refractory solid tumors and lymphomas; cited from earlier work
[4] = parameters: method as in PMID 10778943; details: traditional infusion once every 2 to 3 weeks; cited from earlier work
[5] = Total platinum levels in snap-frozen tumor samples (ICP-MS); format: in vivo, patients
Text: The tumor tissue was frozen and stored in cryogenic storage tubes before being analyzed for total platinum content using inductively coupled plasma mass spectrometry. If a sufficient amount of the sample remained following this analysis, the tissue was subjected to homogenization and extraction with 0.2% formic acid and acetonitrile for analysis by ultra-performance liquid chromatography/mass spectrometry for oxaliplatin content.

[6] = Oxaliplatin plasma pharmacokinetics, non-compartmental analysis; details: for AUCall / AUCinf / C max / CL / V d / t 1/2: C1D2, mean (SD)
Protocol: This phase was followed by an expansion phase in which patients with CRC were treated with the maximum tolerated dose (MTD). Patients were treated with six cycles of therapy, unless they withdrew consent or experienced severe adverse events or progressive disease.
Oxaliplatin pharmacokinetics were assessed on day 2 during cycle 1 to permit correlation of pharmacokinetic parameters with toxicity and treatment outcome. Blood samples (10 ml per sample) were collected immediately prior to oxaliplatin infusion, immediately after infusion, and at 1, 2, 4, 6, 8, 12, and 24 h after infusion. Samples were assayed for total and unbound platinum using either inductively coupled plasma mass spectrometry or atomic absorption spectroscopy methods following isolation of the drug from plasma. Compartmental and non-compartmental models were used to derive pharmacokinetic parameters, including Cmax, AUC, t1/2, Vd, and CL.

[7] = oxaliplatin treatment reported by other investigators; cited from earlier work
[8] = azacitidine/oxaliplatin 20/15 mg/m^2, C1D1, n = 3, mean (SD)
[9] = azacitidine/oxaliplatin 20/15 mg/m^2, C1D5, n = 3, mean (SD)
[10] = azacitidine/oxaliplatin 20/22.5 mg/m^2, C1D1, n = 3, mean (SD)
[11] = azacitidine/oxaliplatin 20/22.5 mg/m^2, C1D5, n = 3, mean (SD)
[12] = azacitidine/oxaliplatin 20/30 mg/m^2, C1D1, n = 3, mean (SD)
[13] = azacitidine/oxaliplatin 20/30 mg/m^2, C1D5, n = 3, mean (SD)
[14] = azacitidine/oxaliplatin 25/30 mg/m^2, C1D1, n = 3, mean (SD)
[15] = azacitidine/oxaliplatin 25/30 mg/m^2, C1D5, n = 3, mean (SD)
[16] = azacitidine/oxaliplatin 40/30 mg/m^2, C1D1, n = 3, mean (SD)
[17] = azacitidine/oxaliplatin 40/30 mg/m^2, C1D5, n = 3, mean (SD)
[18] = azacitidine/oxaliplatin 50/30 mg/m^2, C1D1, n = 22, mean (SD)
[19] = azacitidine/oxaliplatin 50/30 mg/m^2, C1D5, n = 22, mean (SD)
[20] = post-dose vs pre-dose, five post-dose tumor samples, dose level 6
[21] = seven patients, expansion phase, before treatment
[22] = azacitidine/oxaliplatin 20/15 mg/m^2, n = 3
[23] = azacitidine/oxaliplatin 20/22.5 mg/m^2, n = 3
[24] = azacitidine/oxaliplatin 20/30 mg/m^2, n = 3
[25] = azacitidine/oxaliplatin 25/30 mg/m^2, n = 3
[26] = azacitidine/oxaliplatin 40/30 mg/m^2, n = 3
[27] = azacitidine/oxaliplatin 50/30 mg/m^2, n = 22
[28] = oxaliplatin 15 to 30 mg/m^2/day IV over 2 h, days 2 to 5, mean over dose levels

CL [1, 8]: 167.1 (170.5) l/h/m^2
V d [1, 8]: 92.3 (58.9) l/m^2
CL [1, 9]: 136.7 (97.0) l/h/m^2
V d [1, 9]: 61.1 (35.4) l/m^2
CL [1, 10]: 62.7 (53.9) l/h/m^2
V d [1, 10]: 78.6 (54.4) l/m^2
CL [1, 11]: 62.9 (25.4) l/h/m^2
V d [1, 11]: 85.4 (69.0) l/m^2
CL [1, 12]: 239.3 (139.2) l/h/m^2
V d [1, 12]: 226.5 (253.4) l/m^2
CL [1, 13]: 146.1 (40.0) l/h/m^2
V d [1, 13]: 71.6 (19.0) l/m^2
CL [1, 14]: 168.6 (126.7) l/h/m^2
V d [1, 14]: 70.3 (35.7) l/m^2
CL [1, 15]: 150.0 (74.6) l/h/m^2
V d [1, 15]: 132.2 (62.5) l/m^2
CL [1, 16]: 616.6 (525.5) l/h/m^2
V d [1, 16]: 105.8 (37.0) l/m^2
CL [1, 17]: 253.0 (165.5) l/h/m^2
V d [1, 17]: 95.6 (57.3) l/m^2
AUCinf [1, 18]: 412.1 (195.7) h-ng/ml
C max [1, 18]: 581.1 (284.8) ng/ml
CL [1, 18]: 178 l/h/m^2 and 177.7 (155.9) l/h/m^2
V d [1, 18]: 121 l/m^2 and 120.6 (112.0) l/m^2
AUCinf [1, 19]: 431.5 (261.7) h-ng/ml
C max [1, 19]: 637.7 (428.6) ng/ml
CL [1, 19]: 156 l/h/m^2 and 156.2 (80.7) l/h/m^2
V d [1, 19]: 94 l/m^2 and 94.0 (50.7) l/m^2
AUC [1, 8]: 216 ng·h/mL
Cmax [1, 8]: 327 ng/mL
half-life [1, 8]: 32.4 min
AUC(0-inf) ([1]; azacitidine/oxaliplatin 20/15 mg/m^2, C1D1, n = 3, mean (SD), read-out: AUCinf): 221 ng·h/mL
AUC [1, 9]: 193 ng·h/mL
Cmax [1, 9]: 334 ng/mL
half-life [1, 9]: 21 min
AUC(0-inf) ([1]; azacitidine/oxaliplatin 20/15 mg/m^2, C1D5, n = 3, mean (SD), read-out: AUCinf): 196 ng·h/mL
AUC [1, 10]: 428 ng·h/mL
Cmax [1, 10]: 427 ng/mL
half-life [1, 10]: 653 min
AUC(0-inf) ([1]; azacitidine/oxaliplatin 20/22.5 mg/m^2, C1D1, n = 3, mean (SD), read-out: AUCinf): 2330 ng·h/mL
AUC(0-inf) ([1]; azacitidine/oxaliplatin 20/22.5 mg/m^2, C1D1, n = 3, median (footnote a), read-out: AUCinf, median): 259 ng·h/mL
AUC [1, 11]: 317 ng·h/mL
Cmax [1, 11]: 452 ng/mL
half-life [1, 11]: 76.2 min
AUC(0-inf) ([1]; azacitidine/oxaliplatin 20/22.5 mg/m^2, C1D5, n = 3, mean (SD), read-out: AUCinf): 357 ng·h/mL
AUC [1, 12]: 112 ng·h/mL
Cmax [1, 12]: 206 ng/mL
half-life [1, 12]: 32.4 min
AUC(0-inf) ([1]; azacitidine/oxaliplatin 20/30 mg/m^2, C1D1, n = 3, mean (SD), read-out: AUCinf): 125 ng·h/mL
AUC [1, 13]: 144 ng·h/mL
Cmax [1, 13]: 214 ng/mL
half-life [1, 13]: 20.4 min
AUC(0-inf) ([1]; azacitidine/oxaliplatin 20/30 mg/m^2, C1D5, n = 3, mean (SD), read-out: AUCinf): 146 ng·h/mL
AUC [1, 14]: 210 ng·h/mL
Cmax [1, 14]: 252 ng/mL
half-life [1, 14]: 19.8 min
AUC(0-inf) ([1]; azacitidine/oxaliplatin 25/30 mg/m^2, C1D1, n = 3, mean (SD), read-out: AUCinf): 216 ng·h/mL
AUC [1, 15]: 208 ng·h/mL
Cmax [1, 15]: 273 ng/mL
half-life [1, 15]: 43.2 min
AUC(0-inf) ([1]; azacitidine/oxaliplatin 25/30 mg/m^2, C1D5, n = 3, mean (SD), read-out: AUCinf): 214 ng·h/mL
AUC [1, 16]: 97.5 ng·h/mL
Cmax [1, 16]: 190 ng/mL
half-life [1, 16]: 9.6 min
AUC(0-inf) ([1]; azacitidine/oxaliplatin 40/30 mg/m^2, C1D1, n = 3, mean (SD), read-out: AUCinf): 100 ng·h/mL
AUC [1, 17]: 206 ng·h/mL
Cmax [1, 17]: 289 ng/mL
half-life [1, 17]: 16.2 min
AUC(0-inf) ([1]; azacitidine/oxaliplatin 40/30 mg/m^2, C1D5, n = 3, mean (SD), read-out: AUCinf): 212 ng·h/mL
AUC [1, 18]: 404 ng·h/mL
Cmax [1, 18]: 581 ng/mL
half-life [1, 18]: 40.2 min
AUC(0-inf) ([1]; azacitidine/oxaliplatin 50/30 mg/m^2, C1D1, n = 22, mean (SD), read-out: AUCinf): 412 ng·h/mL
AUC [1, 19]: 426 ng·h/mL
Cmax [1, 19]: 638 ng/mL
half-life [1, 19]: 25.2 min
AUC(0-inf) ([1]; azacitidine/oxaliplatin 50/30 mg/m^2, C1D5, n = 22, mean (SD), read-out: AUCinf): 432 ng·h/mL
Structure (SMILES): Nc1ncn([C@@H]2O[C@H](CO)[C@@H](O)[C@H]2O)c(=O)n1 [azacitidine]
dose-dependent interaction on mean systemic exposure (plasma AUCall) ([1]; azacitidine D1 and 5, with oxaliplatin): increasing the dose of oxaliplatin reduced the mean azacitidine exposure
effect on sensitivity to carboplatin [2]: enhance the sensitivity of platinum-resistant ovarian cancer cells to carboplatin

Structure (SMILES): Nc1ncn([C@H]2C[C@H](O)[C@@H](CO)O2)c(=O)n1 [decitabine]
effect on CTR1 expression [3]: significantly increased CTR1 expression

Structure (SMILES): O=C1[O][Pt]2([NH][C@@H]3CCCC[C@H]3[NH]2)[O]C1=O [oxaliplatin]
AUCinf, mean, traditional infusion [4]: 9,907 ng-h/ml
Cmax, mean, traditional infusion [4]: 877 ng/mL
increase of tumor platinum concentration, median [5, 20]: 3.8 fold
increase of tumor platinum concentration, range [5, 20]: 3- to 18 fold
change of tumor platinum concentration ([5]; post-dose vs pre-dose, the two tumor samples with the highest pre-dose level): remained unchanged
pre-dose platinum level in tumor, median [5, 21]: 0.59 μg/g tumor
pre-dose platinum level in tumor, range [5, 21]: <0.25 to 5.8 μg/g tumor
AUCall [6, 22]: 704.3 (228.5) h-ng/ml
AUCinf [6, 22]: 1,003.5 (211.1) h-ng/ml
C max [6, 22]: 337.3 (141.3) ng/ml
CL [6, 22]: 15.5 (3.7) l/h/m^2
V d [6, 22]: 829.2 (580.0) l/m^2
t 1/2 [6, 22]: 38.9 (31.9) h
AUCall [6, 23]: 1,178.4 (238.0) h-ng/ml
AUCinf [6, 23]: 1,359.3 (167.1) h-ng/ml
C max [6, 23]: 573.5 (131.1) ng/ml
CL [6, 23]: 16.7 (2.0) l/h/m^2
V d [6, 23]: 443.5 (232.2) l/m^2
t 1/2 [6, 23]: 17.9 (7.7) h
AUCall [6, 24]: 1,149.0 (930.3) h-ng/ml
AUCinf [6, 24]: 1,411.6 (1,065.1) h-ng/ml
C max [6, 24]: 446.9 (447.8) ng/ml
CL [6, 24]: 29.1 (15.7) l/h/m^2
V d [6, 24]: 794.5 (703.8) l/m^2
t 1/2 [6, 24]: 18.6 (11.9) h
AUCall [6, 25]: 1,369.1 (556.1) h-ng/ml
AUCinf [6, 25]: 1,919.4 (923.3) h-ng/ml
C max [6, 25]: 582.6 (270.3) ng/ml
CL [6, 25]: 19.2 (11.4) l/h/m^2
V d [6, 25]: 587.5 (240.1) l/m^2
t 1/2 [6, 25]: 23.7 (10.2) h
AUCall [6, 26]: 1,543.5 (502.1) h-ng/ml
AUCinf [6, 26]: 1,867.0 (387.0) h-ng/ml
C max [6, 26]: 751.7 (275.5) ng/ml
CL [6, 26]: 16.6 (3.9) l/h/m^2
V d [6, 26]: 613.8 (541.2) l/m^2
t 1/2 [6, 26]: 23.3 (15.6) h
AUCall [6, 27]: 1,286.3 (627.0) h-ng/ml
AUCinf [6, 27]: 1,456 h-ng/ml and 1,455.9 (657.6) h-ng/ml
C max [6, 27]: 650 ng/ml and 649.4 (384.5) ng/ml
CL [6, 27]: 24.5 l/h/m^2 and 24.5 (10.2) l/h/m^2
V d [6, 27]: 554 l/m^2 and 554.0 (250.7) l/m^2
t 1/2 [6, 27]: 16.5 (7.1) h
AUCinf, mean of the current infusion regimen [6, 28]: 1,503 ng-h/ml
Cmax, mean of the current infusion regimen [6, 28]: 557 ng/mL
kinetics of elimination ([6]; plasma, all dose levels): first-order kinetics of elimination
incidence of peripheral neuropathy, all grades [7]: 40% to 50
incidence of peripheral neuropathy, grade ≥3 [7]: 10% to 20
